Reference: ChEMBL document CHEMBL1201862, “PubChem BioAssay data set” (2004)
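Test compounds were applied to cells in 96-well plates for 48 hours at 5 doses. GI50 = concentration required for 50% inhibition of growth.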 The source made the active and inactive calls. No stated cut-off is given here; in the data, active = GI50 up to about 1.1 µM and inactive = higher.

What was measured:
Assay in all cases: NCI-60 cell line screen, 48 h
786-0 = test system: 786-0
EKVX = test system: EKVX
HCT-116 = test system: HCT-116
HL-60 = test system: HL-60
K562 = test system: K562
M14 = test system: M14
MOLT-4 = test system: MOLT-4
Malme-3M = test system: Malme-3M
OVCAR-3 = test system: OVCAR-3
OVCAR-4 = test system: OVCAR-4
RPMI-8226 = test system: RPMI-8226
SK-MEL-2 = test system: SK-MEL-2
U-251 = test system: U-251
UO-31 = test system: UO-31
HOP-92 = test system: HOP-92

Row | SMILES | GI50 (786-0) | GI50 (EKVX) | GI50 (HCT-116) | GI50 (HL-60) | GI50 (K562) | GI50 (M14) | GI50 (MOLT-4) | GI50 (Malme-3M) | GI50 (OVCAR-3) | GI50 (OVCAR-4) | GI50 (RPMI-8226) | GI50 (SK-MEL-2) | GI50 (U-251) | GI50 (UO-31) | GI50 (HOP-92)
1 | CCSc1nc2n(c(=S)n1)CCN2C | 18.5 µM (inactive) | 28.4 µM (inactive) | 15.7 µM (inactive) | 16.4 µM (inactive) | 27.7 µM (inactive) | 15.8 µM (inactive) | 12.2 µM (inactive) | 17.1 µM (inactive) | 20 µM (inactive) | 18.5 µM (inactive) | 22 µM (inactive) | 19.1 µM (inactive) | 19.8 µM (inactive) | 16.3 µM (inactive) | –
2 | COc1ccccc1N1C(=O)C2c3[nH]c4ccccc4c3C3CCC(C(C)(C)C)CC3C2C1=O (stereo not drawn) | > 100 µM (inactive) | > 100 µM (inactive) | > 100 µM (inactive) | > 100 µM (inactive) | > 100 µM (inactive) | > 100 µM (inactive) | > 100 µM (inactive) | > 100 µM (inactive) | – | > 100 µM (inactive) | > 100 µM (inactive) | – | > 100 µM (inactive) | > 100 µM (inactive) | > 100 µM (inactive)
3 | O=C1NC(=O)/C(=N\c2cccc3c(=O)[nH][nH]c(=O)c23)C(c2nc3ccccc3s2)C1=O (stereo not drawn) | > 100 µM (inactive) | > 100 µM (inactive) | > 100 µM (inactive) | > 100 µM (inactive) | – | > 100 µM (inactive) | 71.1 µM (inactive) | > 100 µM (inactive) | > 100 µM (inactive) | > 100 µM (inactive) | – | > 100 µM (inactive) | > 100 µM (inactive) | > 100 µM (inactive) | > 100 µM (inactive)
4 | O=C(CC(=O)N1N=C(n2ccc3ccccc32)CC1c1ccccc1)Nc1cccc(Cl)c1 (stereo not drawn) | > 100 µM (inactive) | > 100 µM (inactive) | > 100 µM (inactive) | > 100 µM (inactive) | > 100 µM (inactive) | > 100 µM (inactive) | > 100 µM (inactive) | > 100 µM (inactive) | > 100 µM (inactive) | > 100 µM (inactive) | > 100 µM (inactive) | > 100 µM (inactive) | > 100 µM (inactive) | > 100 µM (inactive) | 16 µM (inactive)
5 | CC1=C(C(=O)CC(=O)C(=O)Nc2cccc(C)c2C)Sc2ccccc2N1 | > 100 µM (inactive) | > 100 µM (inactive) | > 100 µM (inactive) | > 100 µM (inactive) | > 100 µM (inactive) | > 100 µM (inactive) | > 100 µM (inactive) | > 100 µM (inactive) | > 100 µM (inactive) | > 100 µM (inactive) | > 100 µM (inactive) | > 100 µM (inactive) | > 100 µM (inactive) | > 100 µM (inactive) | > 100 µM (inactive)
6 | O=C1CC(C2(O)C(=O)Nc3ccc([N+](=O)[O-])cc32)c2ccccc21 (stereo not drawn) | 15.8 µM (inactive) | 28.6 µM (inactive) | 31.3 µM (inactive) | 14.8 µM (inactive) | 19.7 µM (inactive) | 18.9 µM (inactive) | 20.7 µM (inactive) | 40.8 µM (inactive) | 25.4 µM (inactive) | 20 µM (inactive) | 20.7 µM (inactive) | 16.6 µM (inactive) | 17.7 µM (inactive) | > 100 µM (inactive) | 35 µM (inactive)
7 | COc1ccc(OC)c(NC(=O)C2=C(C)NC(C)=C(C(=O)Nc3cc(OC)ccc3OC)C2c2ccccc2)c1 | > 100 µM (inactive) | > 100 µM (inactive) | 45.5 µM (inactive) | – | 83 µM (inactive) | > 100 µM (inactive) | 6.5 µM (inactive) | > 100 µM (inactive) | > 100 µM (inactive) | > 100 µM (inactive) | 4.91 µM (inactive) | > 100 µM (inactive) | > 100 µM (inactive) | 35.6 µM (inactive) | 6.41 µM (inactive)
8 | COC(=O)C1[C@H](c2cc(OC)c(OC)c(OC)c2)OC(=O)C1(C(=O)OC)C(=O)c1ccc2c(c1)OCO2 (stereo partly drawn) | > 100 µM (inactive) | > 100 µM (inactive) | > 100 µM (inactive) | > 100 µM (inactive) | > 100 µM (inactive) | > 100 µM (inactive) | > 100 µM (inactive) | > 100 µM (inactive) | > 100 µM (inactive) | > 100 µM (inactive) | > 100 µM (inactive) | – | > 100 µM (inactive) | > 100 µM (inactive) | > 100 µM (inactive)
9 | Cc1c2ccncc2c(C)c2c1[nH]c1ccc(OCC(F)(F)F)cc12 | 1.47 µM (inactive) | 1.61 µM (inactive) | 1.08 µM (active) | 2.08 µM (inactive) | 1.08 µM (active) | 1.96 µM (inactive) | 0.824 µM (active) | 1.73 µM (inactive) | 1.85 µM (inactive) | 2.03 µM (inactive) | 2.27 µM (inactive) | 1.58 µM (inactive) | 1.6 µM (inactive) | 1.73 µM (inactive) | 2.23 µM (inactive)
